In patent US20240269145A1, “USE OF INDOLE COMPOUND AS INHIBITORS OF FERROPTOSIS” (MITOIMMUNE THERAPEUTICS INC., priority 2023, published 2024):

Key:
Assay type in all cases: cell-based
[1] = tested on: H9C2 cells; experiment: Mitochondrial morphological changes (TEM) after erastin; settings: H9C2, 5 μM erastin, 10 μM compound, 5 hours
Description: To confirm whether Example Compound 1 may inhibit mitochondrial morphological changes due to ferroptosis, an experiment was performed using a transmission electron microscope (TEM). To collect cardiac cell samples, 1.3×10^6 H9C2 cells were cultured in a 150 mm cell culture dish for 4 days, and the culture medium was replaced with fresh culture medium on the second day. After treating the cells with Example Compound 1 at a final concentration of 10 µM for 30 minutes, an erastin-only treatment group was treated with a culture medium including 5 μM erastin; an erastin-Example Compound 1 treatment group was treated with a culture medium including 5 μM erastin and 10 μM Example Compound 1; and the V.C group was treated with a culture medium including the same amount of DMSO, and each group was treated for 5 hours. Afterwards, the supernatant was discarded, and the cells were washed with a 37° C. PBS solution three times. 10 mL of a 2.5% glutaraldehyde solution diluted in PBS was added and treated at room temperature for 1 hour. After washing with PBS solution three times, the remaining PBS solution was completely removed using an aspirator. 1 mL of PBS solution was added to recover the cells with a plastic scraper, and the cells were transferred to a 1.5 mL tube. Cells were allowed to settle using a centrifuge (3000 rpm) for 5 minutes. […]

[2] = tested on: PC-12 cells; experiment: Cytosolic lipid ROS after RSL3, Experimental Example 3-4; settings: PC-12, RSL3 0.3 μM, 1 hr
Description: [The source words this procedure for another cell line and says it was used here with some conditions changed.] (§1) Experimental Example 3-1: To confirm the protective effect against cytosolic lipid reactive oxygen species in lung epithelial cells, 2×10^5 MLE-12 cells were dispensed into each well of a 12-well plate and cultured for 18 to 24 hours. Each well was treated with Example Compound 1 and ferrostatin-1, which were diluted so that their final concentration became 0.01, 0.1, 1, and 10 μM, and culture was performed for 15 minutes. Afterwards, the cells were treated so that the final concentration of RSL3 became 1 μM, and cultured for 2 hours. To confirm the inhibitory effect against cytosolic lipid reactive oxygen species, BODIPY™ 581/591 C11 (lipid peroxidation sensor) [Invitrogen™; D3861] was used. According to the manufacturer's experimental method, BODIPY™ 581/591 C11 was diluted in the cell culture medium so that the final concentration became 5 μM, and the cells were treated therewith and allowed to react for 30 minutes to perform fluorescent staining. The MLE-12 cells fluorescently stained with BODIPY™ 581/591 C11 were detached from the 12-well plate using 0.25% Trypsin-EDTA and transferred to a microtube, and the fluorescence (excitation/absorption 500 to 650 nm/510 to 665 nm) was measured using BD FACSLyric™ to calculate the rate of change compared to the control group. […]

[3] = tested on: H9C2 cells; experiment: Mitochondrial iron ion accumulation (Mito-FerroGreen, images) after erastin; settings: H9C2, erastin 5 μM, 5 hr; Example Compound 1 1 μM, DFO 100 μM
Description: [The source words this procedure for another cell line and says it was used here with some conditions changed.] Experimental Example 9-1: To confirm the inhibitory effect against mitochondrial iron ion accumulation in lung epithelial cells and adrenal medulla cells, 3×10^5 MLE-12 cells and PC-12 cells were each dispensed into a confocal dish and cultured for 18 to 24 hours. Each well was treated with Example Compound 1 and DFO, which were diluted so that their final concentration became 1 μM and 10 μM, respectively, and culture was performed for 20 minutes. Afterwards, the MLE-12 cells were treated with RSL3 so that the final concentration became 1 μM, and cultured for 1 hour and 30 minutes, and the PC-12 cells were treated with RSL3 so that the final concentration became 0.3 μM, and cultured for 30 minutes. To confirm the inhibitory effect against mitochondrial iron ion accumulation, Mito-FerroGreen [DOJINDO; M489] was used. According to the manufacturer's experimental method, Mito-FerroGreen was diluted in the cell culture medium so that the final concentration became 1 μM, and the cells were treated therewith and allowed to react for 30 minutes to perform fluorescent staining. The cells fluorescently stained with Mito-FerroGreen were observed using a fluorescence microscope [Carl Zeiss; Axio Observer 7] to investigate the change in fluorescence (excitation/absorption 450 to 490 nm/500 to 550 nm) compared to the control group (RSL3 untreated group). […]

[4] = tested on: HT-22 cells; experiment: Cytosolic lipid ROS after erastin, Experimental Example 3-2; settings: HT-22, erastin 1 μM, compound at 10 μM
Description: [The source words this procedure for another cell line and says it was used here with some conditions changed.] as §1

[5] = tested on: ARPE-19 cells; experiment: Cytosolic lipid ROS after RSL3, Experimental Example 3-5; settings: ARPE-19, RSL3 0.3 μM, 2 hr
Description: [The source words this procedure for another cell line and says it was used here with some conditions changed.] as §1

SMILES: O=S1(=O)CCN(Cc2cc(NC3CCOCC3)c3[nH]c(-c4ccccc4)cc3c2)CC1 [Example 1, 5-[(1,1-dioxido-4-thiomorpholinyl)methyl]-2-phenyl-N-(tetrahydro-2H-pyran-4-yl)-1H-indole-7-amine]
- mitochondrial morphological changes (size decrease, cristae loss, outer membrane collapse), TEM [1]: alleviated
- concentration at which cytosolic lipid reactive oxygen species were significantly decreased [2]: 0.1 µM
- mitochondrial iron ion accumulation (images) [3]: inhibited
- cytosolic lipid reactive oxygen species increased by erastin [4]: inhibited
- cytosolic lipid reactive oxygen species increased by erastin ([4]; 4 hours and 8 hours after treatment): effectively inhibited
- concentration at which lipid reactive oxygen species are inhibited [5]: 0.01 µM
